Bounds are passed on as bounds.

For 23 compounds, IC50 results are on record in patent publication US10112929B2, “Lactams as inhibitors of rock” (BRISTOL-MYERS SQUIBB COMPANY, priority 2015, dated 2018).
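Also: rho kinase enzyme reaction halted with EDTA, phospho- and non-phospho peptide separated for read-out, kinase activity inhibition derived across a dose-response series, DMSO under 2%.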

Sequence of ROCK2 (O75116 whole entry, species assumed): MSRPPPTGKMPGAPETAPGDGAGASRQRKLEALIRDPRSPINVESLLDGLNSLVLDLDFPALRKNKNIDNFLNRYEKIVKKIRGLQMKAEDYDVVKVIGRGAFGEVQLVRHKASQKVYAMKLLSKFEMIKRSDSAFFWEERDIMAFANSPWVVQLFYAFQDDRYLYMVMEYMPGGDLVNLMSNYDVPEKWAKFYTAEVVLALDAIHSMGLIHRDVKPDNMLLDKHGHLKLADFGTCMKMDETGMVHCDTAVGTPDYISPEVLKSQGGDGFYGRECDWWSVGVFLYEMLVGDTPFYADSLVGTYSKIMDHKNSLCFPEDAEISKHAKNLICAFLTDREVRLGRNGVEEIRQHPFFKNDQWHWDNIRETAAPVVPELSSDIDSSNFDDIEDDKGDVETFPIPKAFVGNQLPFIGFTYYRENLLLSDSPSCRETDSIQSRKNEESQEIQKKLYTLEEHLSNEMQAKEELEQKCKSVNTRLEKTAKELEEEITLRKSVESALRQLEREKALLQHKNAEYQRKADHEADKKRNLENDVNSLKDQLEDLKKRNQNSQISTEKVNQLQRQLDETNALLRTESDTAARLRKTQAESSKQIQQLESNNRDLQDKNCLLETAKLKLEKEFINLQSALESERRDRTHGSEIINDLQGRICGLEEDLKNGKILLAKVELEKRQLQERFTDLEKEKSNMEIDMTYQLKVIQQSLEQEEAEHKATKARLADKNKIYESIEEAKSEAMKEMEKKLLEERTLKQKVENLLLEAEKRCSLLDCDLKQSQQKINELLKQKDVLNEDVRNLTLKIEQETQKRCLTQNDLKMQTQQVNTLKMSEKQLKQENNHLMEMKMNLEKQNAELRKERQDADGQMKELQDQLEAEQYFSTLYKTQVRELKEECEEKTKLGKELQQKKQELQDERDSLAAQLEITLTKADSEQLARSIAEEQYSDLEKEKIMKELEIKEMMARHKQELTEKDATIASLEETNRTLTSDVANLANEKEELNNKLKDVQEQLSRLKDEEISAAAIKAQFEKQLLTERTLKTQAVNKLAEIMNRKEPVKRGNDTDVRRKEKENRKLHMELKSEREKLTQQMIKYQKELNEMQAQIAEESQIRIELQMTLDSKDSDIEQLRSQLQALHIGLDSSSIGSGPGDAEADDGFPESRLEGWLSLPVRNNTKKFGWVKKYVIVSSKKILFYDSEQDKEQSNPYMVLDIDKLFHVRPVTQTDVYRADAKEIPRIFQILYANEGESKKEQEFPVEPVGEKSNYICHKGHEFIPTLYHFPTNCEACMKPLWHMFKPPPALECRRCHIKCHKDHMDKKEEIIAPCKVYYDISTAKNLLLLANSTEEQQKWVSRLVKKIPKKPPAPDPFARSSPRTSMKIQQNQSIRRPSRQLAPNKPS

The assay concerns the target ROCK2 (Homo sapiens (Human), UniProt O75116).
Usually IC50 stands for the midpoint of a concentration-inhibition curve. A lower IC50 goes with inhibition by little substance. On to `COc1cc(F)cc(NC2CCN(c3ncc(-c4cn[nH]c4)cc3F)C2=O)c1` (single isomer, unassigned) [Example 360, 1-(3-fluoro-5-(1H-pyrazol-4-yl)pyridin-2-yl)-3-((3-fluoro-5-methoxyphenyl)amino) pyrrolidin-2-one], for which the IC50 lay in the range of 100 to 2200 nM.
In turn, `COc1cc(NC2CCN(c3ccc(-c4cn[nH]c4)c(C#N)c3)C2=O)ccc1F` (single isomer, unassigned) [Example 380, 5-(3-((4-fluoro-3-methoxyphenyl)amino)-2-oxopyrrolidin-1-yl)-2-(1H-pyrazol-4-yl)benzonitrile] had an IC50 of 100 to 2200 nM.
In turn, `COc1ccc(NC2CCN(c3ccc(-c4cn[nH]c4)c(OC)c3)C2=O)cc1F` (single isomer, unassigned) [Example 142, 3-((3-fluoro-4-methoxyphenyl)amino)-1-(3-methoxy-4-(1H-pyrazol-4-yl)phenyl) pyrrolidin-2-one] returned an IC50 of 100 to 2200 nM.
On to `COc1cc(F)ccc1NC1CCN(c2ccc(-c3cn[nH]c3)c(OC)c2)C1=O` (single isomer, unassigned) [Example 144, 3-((4-fluoro-2-methoxyphenyl)amino)-1-(3-methoxy-4-(1H-pyrazol-4-yl)phenyl) pyrrolidin-2-one], for which the IC50 lay in the range of 100 to 2200 nM.
For `CCOc1cccc(NC2CCN(c3ccc(-c4cn[nH]c4)c(OC)n3)C2=O)c1` (single isomer, unassigned) [Example 219, 3-((3-ethoxyphenyl)amino)-1-(6-methoxy-5-(1H-pyrazol-4-yl)pyridin-2-yl)pyrrolidin-2-one] the value was under 10 nM.
For the compound `CCc1nc(N2CCC(Nc3cccc(OC)c3)C2=O)ccc1-c1cn[nH]c1` (single isomer, unassigned) [Example 314, 1-(6-ethyl-5-(1H-pyrazol-4-yl)pyridin-2-yl)-3-((3-methoxyphenyl)amino) pyrrolidin-2-one], the IC50 is under 10 nM.
The compound `COc1cccc(NC2CCN(c3ccc(-c4cn[nH]c4)c(OC)c3)C2=O)c1` (single isomer, unassigned) [Example 75, 1-(3-methoxy-4-(1H-pyrazol-4-yl)phenyl)-3-((3-methoxyphenyl)amino)pyrrolidin-2-one] gave an IC50 of under 10 nM.
For `COc1ccc(NC2CCN(c3ccc(-c4cn[nH]c4)cc3F)C2=O)cc1F` (single isomer, unassigned) [Example 345, 1-(2-fluoro-4-(1H-pyrazol-4-yl)phenyl)-3-((3-fluoro-4-methoxyphenyl)amino) pyrrolidin-2-one] the value was 100 to 2200 nM.
Turning to `COc1cc(NC2CCN(c3ccc(-c4cn[nH]c4)c(F)c3F)C2=O)ccc1F` (single isomer, unassigned) [Example 308, 1-(2,3-difluoro-4-(1H-pyrazol-4-yl)phenyl)-3-((4-fluoro-3-methoxyphenyl)amino)pyrrolidin-2-one], the IC50 was in the range of 10 to 100 nM.
Consider `COc1nc(N2CCC(Nc3cccc(OCC4CC4)c3)C2=O)ccc1-c1cn[nH]c1` (single isomer, unassigned) [Example 215, 3-((3-(cyclopropylmethoxy)phenyl)amino)-1-(6-methoxy-5-(1H-pyrazol-4-yl)pyridin-2-yl)pyrrolidin-2-one], for which the concentration for half-maximal inhibition (IC50) was under 10 nM.
For `COc1cccc(NC2CCN(c3cc(F)c(-c4cn[nH]c4)c(F)c3)C2=O)c1` (single isomer, unassigned) [Example 312, 1-(3,5-difluoro-4-(1H-pyrazol-4-yl)phenyl)-3-((3-methoxyphenyl)amino)pyrrolidin-2-one], the IC50 is under 10 nM.
Compound `COc1cccc(OC2CCN(c3ccc(-c4ccc5cn[nH]c5c4)c(OC)n3)C2=O)c1` (single isomer, unassigned) [Example 125, 1-(5-(1H-indazol-6-yl)-6-methoxypyridin-2-yl)-3-(3-methoxyphenoxy)pyrrolidin-2-one] displayed an IC50 of 100 to 2200 nM.
`COc1ccc(F)c(NC2CCN(c3ccc(-c4cn[nH]c4)c(OC)c3)C2=O)c1` (single isomer, unassigned) [Example 149, 3-((2-fluoro-5-methoxyphenyl)amino)-1-(3-methoxy-4-(1H-pyrazol-4-yl)phenyl) pyrrolidin-2-one] displayed a concentration for half-maximal inhibition (IC50) of 10 to 100 nM.
`COc1cccc(NC2CCN(c3ccc(-c4cn[nH]c4)cc3)C2=O)c1C` (single isomer, unassigned) [Example 326, 1-(4-(1H-pyrazol-4-yl)phenyl)-3-((3-methoxy-2-methylphenyl)amino) pyrrolidin-2-one]: the IC50 lay in the range of 10 to 100 nM.
Turning to `COc1cccc(NC2CCN(c3ccc(-c4cn[nH]c4)cc3)C2=O)c1` (single isomer, unassigned) [Example 29, 1-(4-(1H-pyrazol-4-yl)phenyl)-3-((3-methoxyphenyl)amino)pyrrolidin-2-one], the IC50 is under 10 nM.
For `Cc1nc(N2CCC(Nc3cccc(OC(F)F)c3)C2=O)ccc1-c1cn[nH]c1` (single isomer, unassigned) [Example 202, 3-((3-(difluoromethoxy)phenyl)amino)-1-(6-methyl-5-(1H-pyrazol-4-yl)pyridin-2-yl)pyrrolidin-2-one], the IC50 was 10 to 100 nM.
In the case of `COc1ccc(NC2CCN(c3ccc(-c4cn[nH]c4)cc3)C2=O)c(F)c1` (single isomer, unassigned) [Example 20, 1-(4-(1H-pyrazol-4-yl)phenyl)-3-((2-fluoro-4-methoxyphenyl)amino)pyrrolidin-2-one], the IC50 fell in the range of 100 to 2200 nM.
Compound `COc1cc(F)cc(NC2CCN(c3ccc(-c4cn[nH]c4)c(OC)c3)C2=O)c1` (single isomer, unassigned) [Example 138, 3-((3-fluoro-5-methoxyphenyl)amino)-1-(3-methoxy-4-(1H-pyrazol-4-yl)phenyl) pyrrolidin-2-one] displayed an IC50 of under 10 nM.
For `O=C1C(Nc2cccc(OC(F)F)c2)CCN1c1ccc(-c2cn[nH]c2)c(F)c1` (single isomer, unassigned) [Example 356, 3-((3-(difluoromethoxy)phenyl)amino)-1-(3-fluoro-4-(1H-pyrazol-4-yl)phenyl) pyrrolidin-2-one] the value was 10 to 100 nM; for `COc1c(F)cccc1NC1CCN(c2ccc(-c3cn[nH]c3)cc2F)C1=O` (single isomer, unassigned) [Example 343, 3-((3-fluoro-2-methoxyphenyl)amino)-1-(2-fluoro-4-(1H-pyrazol-4-yl)phenyl) pyrrolidin-2-one], 100 to 2200 nM; for `COc1cccc(NC2CCN(c3ccc(-c4cn[nH]c4)cn3)C2=O)c1` (single isomer, unassigned) [Example 86, 1-(5-(1H-pyrazol-4-yl)pyridin-2-yl)-3-((3-methoxyphenyl)amino)pyrrolidin-2-one], under 10 nM.
For the compound `CCc1cc(N2CCC(Nc3ccc(F)c(OC)c3)C2=O)ccc1-c1cn[nH]c1` (single isomer, unassigned) [Example 242, 1-(3-ethyl-4-(1H-pyrazol-4-yl)phenyl)-3-((4-fluoro-3-methoxyphenyl)amino) pyrrolidin-2-one], the IC50 lay within 10 to 100 nM.
`COc1cc(NC2CCN(c3ccc(-c4cn[nH]c4)c(C(F)(F)F)c3)C2=O)ccc1F` (single isomer, unassigned) [Example 372, 1-(4-(1H-pyrazol-4-yl)-3-(trifluoromethyl)phenyl)-3-((4-fluoro-3-methoxyphenyl)amino)pyrrolidin-2-one]: the IC50 is 100 to 2200 nM.
